Experimental data reported in patent US9901592B2 (priority 2008, dated 2018).
Converted amounts (≈) assume the structure as drawn. Read-outs that look alike come from different tables or passages of the source.

Assays:
[1] = tested on: U. urealyticum; test: MIC testing in 10B broth (colour change); type: cell-based; conditions: U. urealyticum (10 isolates)
[2] = tested on: pneumococci; test: microbe, parasite or virus in culture; type: cell-based, S. pneumoniae; conditions: Streptococcus pneumoniae, pneumococci, L4 mutations (27)
[3] = tested on: U. parvum; test: MIC testing in 10B broth (colour change); type: cell-based, Ureaplasma parvum; conditions: U. parvum (10 isolates)
[4] = tested on: S. pyogenes; type: cell-based; conditions: strain 2132 Macrolide-S
[5] = tested on: S. pneumoniae; type: cell-based
[6] = tested on: S. pyogenes 3029; test: Intraperitoneal (IP) mouse infection model (ED50); type: in vivo; conditions: Streptococcus pyogenes, MAC-R S. pyogenes 3029
[7] = tested on: M. catarrhalis; test: microbe, parasite or virus in culture; type: cell-based; conditions: Moraxella catarrhalis
[8] = tested on: S. pneumoniae; test: microbe, parasite or virus in culture; type: cell-based; conditions: Streptococcus pneumoniae
[9] = tested on: intraphagocytic L. pneumophila ATCC 33153 (THP-1); type: cell-based
[10] = tested on: S. pyogenes; test: microbe, parasite or virus in culture; type: cell-based; conditions: for MIC: Streptococcus pyogenes
[11] = tested on: M. pneumoniae; test: microbe, parasite or virus in culture; type: cell-based; conditions: Mycoplasmoides pneumoniae

SMILES: CC[C@H]1OC(=O)[C@H](C)[C@@H](O[C@H]2C[C@@](C)(OC)[C@@H](O)[C@H](C)O2)[C@H](C)[C@@H](O[C@@H]2O[C@H](C)C[C@H](N(C)C)[C@H]2O)[C@](C)(O)C[C@@H](C)CN(C)[C@H](C)[C@@H](O)[C@]1(C)O [AZI, azithromycin]
- MIC Range [1]: 0.5 to 4 µg/mL
- MIC50 ([1]; Ureaplasma urealyticum): 2 µg/mL (≈ 2.67 µM)
- MIC90 ([1]; Ureaplasma urealyticum): 4 µg/mL (≈ 5.34 µM)
- MIC50 [2]: > 64 µg/mL
- MIC90 [2]: > 64 µg/mL
- MIC Range [3]: 0.5 to 4 µg/mL
- MIC50 ([3]; Ureaplasma parvum, read-out: MIC50): 2 µg/mL (≈ 2.67 µM)
- MIC90 ([3]; Ureaplasma parvum, read-out: MIC90): 4 µg/mL (≈ 5.34 µM)
- single step mutation frequency ([4]; 2 × MIC): <1.0 × 10^−10
- single step mutation frequency ([4]; 4 × MIC): <1.0 × 10^−10
- single step mutation frequency ([4]; 8 × MIC): <1.0 × 10^−10
- single step mutation frequency ([5]; strain 1077 Macrolide-S, 2 × MIC): 7.2 × 10^−9
- single step mutation frequency ([5]; strain 1077 Macrolide-S, 4 × MIC): <1.9 × 10^−10
- single step mutation frequency ([5]; strain 1077 Macrolide-S, 8 × MIC): <1.9 × 10^−10
- single step mutation frequency ([5]; strain 1635 Macrolide-R [erm(A)], 2 × MIC): <2.0 × 10^−10
- single step mutation frequency ([5]; strain 1635 Macrolide-R [erm(A)], 4 × MIC): <2.0 × 10^−10
- single step mutation frequency ([5]; strain 1635 Macrolide-R [erm(A)], 8 × MIC): <2.0 × 10^−10
- single step mutation frequency ([5]; strain 7127 Macrolide-S [S20N in L4, A105V in L22], 2 × MIC): <2.0 × 10^−10
- single step mutation frequency ([5]; strain 7127 Macrolide-S [S20N in L4, A105V in L22], 4 × MIC): <2.0 × 10^−10
- single step mutation frequency ([5]; strain 7127 Macrolide-S [S20N in L4, A105V in L22], 8 × MIC): <2.0 × 10^−10
- ED50 [6]: > 150 mg/kg
- MIC90 [7]: 0.06 µg/mL (≈ 0.0801 µM)
- MIC90 [8]: > 16 µg/mL
- Cs ([9]; L. pneumophila ATCC 33153, 48 h): 181 ×MIC
- Cs, static concentration ([9]; intracellular L. pneumophila ATCC 33153): 2.90 mg/L
- strains with resistant clones / strains tested ([10]; S. pyogenes): 3/4
- MIC ([10]; read-out: Initial MIC, strain 237 Macrolide-R [LA mutation], parent): 4 µg/mL (≈ 5.34 µM)
- MIC ([10]; read-out: Initial MIC, strain 2011 Macrolide-R [mef(A)], parent): 4 µg/mL (≈ 5.34 µM)
- MIC ([10]; read-out: Initial MIC, strain 2094 Macrolide-R [erm(A)], parent): 4 µg/mL (≈ 5.34 µM)
- MIC ([10]; read-out: Initial MIC, strain 2132 Macrolide-S, parent): 0.06 µg/mL (≈ 0.0801 µM)
- MIC ([10]; read-out: Initial MIC, strain 2368 Macrolide-R [erm(B)], parent): > 64 µg/mL
- MIC ([10]; read-out: MIC of parents of resistant clones, S. pyogenes): 0.06 to 4 µg/mL
- MIC ([10]; read-out: Parental MICs, S. pyogenes, 5 strains with varying resistotypes): 0.06 to 4 µg/mL (≈ 0.0801 to 5.34 µM)
- MIC ([10]; read-out: Selected Resistance (MIC), strain 237 Macrolide-R [LA mutation], after serial passages in the drug): 8 µg/mL (≈ 10.7 µM)
- MIC ([10]; read-out: Selected Resistance (MIC), strain 2011 Macrolide-R [mef(A)], after serial passages in the drug): 32 µg/mL (≈ 42.7 µM)
- MIC ([10]; read-out: Selected Resistance (MIC), strain 2094 Macrolide-R [erm(A)], after serial passages in the drug): > 64 µg/mL
- MIC ([10]; read-out: Selected Resistance (MIC), strain 2132 Macrolide-S, after serial passages in the drug): 1 µg/mL (≈ 1.34 µM)
- days until resistant clones (MIC increase) ([10]; daily passages, max. 50): 5 to 35 days
- Retest MIC after 10 Antibioticfree Subcultures ([10]; strain 237 Macrolide-R [LA mutation], clone selected with CEM-101): 4 µg/mL
- Retest MIC after 10 Antibioticfree Subcultures ([10]; strain 237 Macrolide-R [LA mutation], clone selected with CLN): 8 µg/mL
- Retest MIC after 10 Antibioticfree Subcultures ([10]; strain 2011 Macrolide-R [mef(A)], clone selected with AZI): 16 µg/mL
- Retest MIC after 10 Antibioticfree Subcultures ([10]; strain 2094 Macrolide-R [erm(A)], clone selected with AZI): >64 µg/mL
- Retest MIC after 10 Antibioticfree Subcultures ([10]; strain 2094 Macrolide-R [erm(A)], clone selected with CEM-101): 4 µg/mL
- Retest MIC after 10 Antibioticfree Subcultures ([10]; strain 2094 Macrolide-R [erm(A)], clone selected with CLN): 16 µg/mL
- Retest MIC after 10 Antibioticfree Subcultures ([10]; strain 2094 Macrolide-R [erm(A)], clone selected with CLR): >64 µg/mL
- Retest MIC after 10 Antibioticfree Subcultures ([10]; strain 2094 Macrolide-R [erm(A)], clone selected with TEL): >64 µg/mL
- Retest MIC after 10 Antibioticfree Subcultures ([10]; strain 2132 Macrolide-S, clone selected with AZI): 1 µg/mL
- Retest MIC after 10 Antibioticfree Subcultures ([10]; strain 2368 Macrolide-R [erm(B)], clone selected with CEM-101): >64 µg/mL
- Retest MIC after 10 Antibioticfree Subcultures ([10]; strain 2368 Macrolide-R [erm(B)], clone selected with TEL): >64 µg/mL
- MIC50 [11]: 0.00025 µg/mL (≈ 0.000334 µM)
- MIC90 [11]: 0.0005 µg/mL (≈ 0.000668 µM)
